Target: T1, Orai1 (STIM1/Orai1 channel, CRAC channel) (Homo sapiens, UniProt Q96D31)
T1 construct: with STIM1
Experiment: whole-cell patch clamp of STIM1/Orai1 currents in transfected HEK293T cells
Format: cell-based

T1 sequence (Q96D31 whole entry): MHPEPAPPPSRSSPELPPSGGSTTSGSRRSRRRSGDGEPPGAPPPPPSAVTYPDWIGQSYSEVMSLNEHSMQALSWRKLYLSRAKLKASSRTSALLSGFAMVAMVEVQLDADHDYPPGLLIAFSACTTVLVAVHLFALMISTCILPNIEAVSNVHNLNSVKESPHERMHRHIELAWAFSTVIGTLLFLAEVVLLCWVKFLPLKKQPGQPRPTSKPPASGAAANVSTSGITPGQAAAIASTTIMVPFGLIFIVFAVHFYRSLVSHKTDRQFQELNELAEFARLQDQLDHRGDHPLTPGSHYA
T1 sequence (Q13586 23-685 partner): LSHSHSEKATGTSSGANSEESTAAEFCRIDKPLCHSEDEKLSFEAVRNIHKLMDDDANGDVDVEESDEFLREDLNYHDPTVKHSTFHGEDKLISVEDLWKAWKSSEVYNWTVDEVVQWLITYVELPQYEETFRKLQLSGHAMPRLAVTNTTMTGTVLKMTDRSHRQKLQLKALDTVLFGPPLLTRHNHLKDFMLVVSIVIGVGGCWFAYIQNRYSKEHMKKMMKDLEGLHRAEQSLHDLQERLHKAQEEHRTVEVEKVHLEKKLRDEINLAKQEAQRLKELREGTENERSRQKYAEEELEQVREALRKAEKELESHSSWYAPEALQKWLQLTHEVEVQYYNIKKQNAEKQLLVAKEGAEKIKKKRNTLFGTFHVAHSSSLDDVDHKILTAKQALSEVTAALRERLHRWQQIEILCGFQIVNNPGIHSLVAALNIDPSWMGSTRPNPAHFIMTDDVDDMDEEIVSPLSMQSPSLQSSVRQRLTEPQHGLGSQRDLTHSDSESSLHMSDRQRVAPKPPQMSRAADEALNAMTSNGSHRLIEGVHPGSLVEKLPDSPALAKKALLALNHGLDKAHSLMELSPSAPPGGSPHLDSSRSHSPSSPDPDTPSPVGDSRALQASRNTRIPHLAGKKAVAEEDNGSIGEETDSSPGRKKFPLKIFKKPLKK

## COc1cc(OC)c(CCC(=O)c2ccc(O)cc2)c(OC)c1 [LrB, Loureirin B]
  IC50: 17.1 ± 2.17 µM

Source: article PMC8268022, “Loureirin B Exerts its Immunosuppressive Effects by Inhibiting STIM1/Orai1 and KV1.3 Channels” (Frontiers in Pharmacology, 2021)
